Measurements as given in patent publication US5922709A, “Antifungal composition” (Banyu Pharmaceutical Co., Ltd., priority 1995, dated 1999).
Converted amounts (≈) assume the structure as drawn.

Tests used:
Assay type in all cases: cell-based
[1] = test system: Candida albicans IFO 1385; assay: Minimum inhibitory concentration (agar dilution method) of miconazole in the presence or absence of BE-31405, Candida albicans IFO 1385; conditions: for MIC of miconazole: yeast morphology agar, 37° C., 2 days
[2] = test system: Candida albicans IFO 1270; assay: Minimum inhibitory concentration (agar dilution method) of itraconazole in the presence and absence of BE-31405, Candida albicans IFO 1270; conditions: for MIC of intraconazole: 37° C., 2 days
Protocol: (§1) Now, the minimum inhibitory concentrations (MIC, by an agar dilution method) of itraconazole against Candida albicans IFO 1270, IFO 1385 and ATCC90028 in the presence and absence of BE-31405, are shown in Tables 3, 4 and 5, respectively. As the agar medium for the measurement of MIC, a culture medium having 1% of glucose and 1.2% of agar added to a yeast nitrogen base, manufactured by Difico Co., was used, and after inoculation of the strain solution, culturing was carried out at 37° C. for 2 days, whereupon the concentration at which no growth of the strain was observed, was judged to be MIC.

[3] = test system: Candida albicans IFO 1385; assay: Minimum inhibitory concentration (agar dilution method) of itraconazole in the presence and absence of BE-31405, Candida albicans IFO 1385; conditions: for MIC of intraconazole: 37° C., 2 days
Protocol: as §1

[4] = test system: Candida albicans ATCC 90028; assay: Minimum inhibitory concentration (agar dilution method) of itraconazole in the presence and absence of BE-31405, Candida albicans ATCC 90028; conditions: for MIC of intraconazole: 37° C., 2 days
Protocol: as §1

[5] = BE-31405 0.0 μg/ml (absence), yeast nitrogen base, 1% glucose, 1.2% agar
[6] = itraconazole combined with BE-31405, IFO 1270 (Table 3)
[7] = with BE-31405 0.025 μg/ml, yeast nitrogen base agar
[8] = with BE-31405 0.1 μg/ml, yeast nitrogen base agar
[9] = with BE-31405 0.39 μg/ml, yeast nitrogen base agar
[10] = itraconazole combined with BE-31405, IFO 1385 (Table 4)
[11] = with BE-31405 0.05 μg/ml, yeast nitrogen base agar
[12] = itraconazole combined with BE-31405, ATCC 90028 (Table 5)

**Q.** With `CC(=O)OC1C2OC3(OCC45CC6C(C)CCC6C6(C=O)CC4C=C(C(C)C)C65C(=O)O)OC2OC1C3O` (stereo not drawn) [BE-31405] as the molecule, how does the MIC ([1]; Candida albicans, IFO1385, 48 h, BE31405 alone under this test condition (Table 2)) read?
**A.** 1.56 µg/mL (≈ 2.93 µM)

**Q.** What about the MIC ([2]; Candida albicans, IFO1270, 48 h, BE31405 alone under this test condition (Table 3)) of the same molecule?
**A.** 0.78 µg/mL (≈ 1.46 µM)

**Q.** And the MIC ([3]; Candida albicans, IFO1385, 48 h, BE31405 alone under this test condition (Table 4))?
**A.** 1.56 µg/mL (≈ 2.93 µM)

**Q.** And the MIC ([4]; Candida albicans, ATCC90028, 48 h, BE31405 alone under this test condition (Table 5))?
**A.** 1.56 µg/mL (≈ 2.93 µM)

**Q.** `CCC(C)n1ncn(-c2ccc(N3CCN(c4ccc(OCC5COC(Cn6cncn6)(c6ccc(Cl)cc6Cl)O5)cc4)CC3)cc2)c1=O` (stereo not drawn) [itraconazole] was tested. Which MIC of intraconazole [2, 5] did it give?
**A.** > 100 µg/mL

**Q.** And the “effect of combined use” value [2, 6]?
**A.** strong synergistic effects

**Q.** What about the “fractional inhibitory concentration index” value [2, 6] of the same molecule?
**A.** at most 0.2

**Q.** And the “antifungal activities of itraconazole in the presence of a low concentration of BE-31405” value (“antifungal activities of itraconazole” for short) ([2]; low concentration of BE-31405, IFO 1270 (Table 3))?
**A.** substantially enhanced

**Q.** And the MIC of intraconazole ([2]; with BE-31405 0.006 μg/ml, yeast nitrogen base agar)?
**A.** 0.05 µg/mL

**Q.** And the MIC of intraconazole [2, 7]?
**A.** 0.013 µg/mL

**Q.** What about the MIC of intraconazole [2, 8] of the same molecule?
**A.** 0.013 µg/mL

**Q.** And the MIC of intraconazole [2, 9]?
**A.** 0.013 µg/mL

**Q.** What about the MIC of intraconazole [3, 5] of the same molecule?
**A.** > 100 µg/mL

**Q.** And the “effect of combined use” value [3, 10]?
**A.** strong synergistic effects

**Q.** What about the “fractional inhibitory concentration index” value [3, 10] of the same molecule?
**A.** at most 0.2

**Q.** And the “antifungal activities of itraconazole” value ([3]; low concentration of BE-31405, IFO 1385 (Table 4))?
**A.** substantially enhanced

**Q.** What about the MIC of intraconazole [3, 7] of the same molecule?
**A.** 1.56 µg/mL

**Q.** And the MIC of intraconazole [3, 11]?
**A.** 0.2 µg/mL

**Q.** And the MIC of intraconazole [3, 8]?
**A.** 0.1 µg/mL

**Q.** What about the MIC of intraconazole [3, 9] of the same molecule?
**A.** 0.05 µg/mL

**Q.** What about the MIC of intraconazole [4, 5] of the same molecule?
**A.** > 100 µg/mL

**Q.** And the “effect of combined use” value [4, 12]?
**A.** strong synergistic effects

**Q.** What about the “fractional inhibitory concentration index” value [4, 12] of the same molecule?
**A.** at most 0.2

**Q.** And the “antifungal activities of itraconazole” value ([4]; low concentration of BE-31405, ATCC 90028 (Table 5))?
**A.** substantially enhanced

**Q.** What about the MIC of intraconazole [4, 7] of the same molecule?
**A.** 1.56 µg/mL

**Q.** What about the MIC of intraconazole [4, 11] of the same molecule?
**A.** 0.2 µg/mL

**Q.** What about the MIC of intraconazole [4, 8] of the same molecule?
**A.** 0.2 µg/mL

**Q.** What about the MIC of intraconazole [4, 9] of the same molecule?
**A.** 0.1 µg/mL

**Q.** Which results are given for `Clc1ccc(COC(Cn2ccnc2)c2ccc(Cl)cc2Cl)c(Cl)c1` (stereo not drawn) [miconazole]?
**A.** MIC of miconazole ([1]; BE-31405 0.0 μg/ml (absence)): 12.5 µg/mL; antifungal activities of miconazole in the presence of a low concentration of BE-31405 ([1]; in the presence of a low concentration of BE-31405): substantially enhanced; fractional inhibitory concentration index ([1]; miconazole combined with BE-31405): 0.2; effect of combined use ([1]; miconazole combined with BE-31405, judged from fractional inhibitory concentration index): synergistic effect; MIC of miconazole ([1]; with BE-31405 0.1 μg/ml): 1.56 µg/mL; MIC of miconazole ([1]; with BE-31405 0.2 μg/ml): 0.78 µg/mL; MIC of miconazole ([1]; with BE-31405 0.39 μg/ml): 0.39 µg/mL; MIC of miconazole ([1]; with BE-31405 0.78 μg/ml): 0.05 µg/mL
